According to ChEMBL document CHEMBL1142842, “Trifluoromethylation of flavonoids and anti-tumor activity of the trifluoromethylated flavonoid derivatives” (2005):

Legend:
U2OS [1] = test: In vitro effect on the S phase of cell cycle of U2OS cells upon incubation at 37 degree for 24 hours in FCM assay at concentration of 500 nM; assay type: functional, Homo sapiens
U2OS [2] = test: In vitro effect on the G1 phase of cell cycle of U2OS cells upon incubation at 37 degree for 24 hours in FCM assay at concentration of 500 nM; assay type: functional, Homo sapiens
U2OS [3] = test: In vitro effect on the G2/M phase of cell cycle of U2OS cells upon incubation at 37 degree for 24 hours in FCM assay at concentration of 500 nM; assay type: functional, Homo sapiens
U2OS [4] = test: In vitro effect on the G2/M phase of cell cycle of U2OS cells upon incubation at 37 degree for 24 hours in FCM assay; all the cell died at tested concentration (500 nM); assay type: functional, cell-based; settings: Homo sapiens
U2OS [5] = test: In vitro effect on the S phase of cell cycle of U2OS cells upon incubation at 37 degree for 24 hours in FCM assay; all the cell died at tested concentration (500 nM); assay type: functional, cell-based; settings: Homo sapiens
U2OS [6] = test: In vitro effect on the G1 phase of cell cycle of U2OS cells upon incubation at 37 degree for 24 hours in FCM assay; all the cell died at tested concentration (500 nM); assay type: functional, cell-based; settings: Homo sapiens

Row | SMILES | Content of cell cycle (U2OS [1]) [%] | Content of cell cycle (U2OS [2]) [%] | Content of cell cycle (U2OS [3]) [%] | further results
1 | COc1cc(OC)c2c(=O)cc(-c3cc(C(F)(F)F)c(OC)c(C(F)(F)F)c3)oc2c1 | 44.92 | 55.08 | 0 | 
2 | COc1ccc(-c2oc3cc(OC)cc(OC)c3c(=O)c2C(F)(F)F)cc1 | 49.24 | 44.09 | 6.67 | 
3 | COc1cc(OC)c2c(c1)OC(c1ccccc1)=CC2(O)C(F)(F)F (stereo not given) |  |  |  | Activity (U2OS [4]): all the cells died at tested concentration (500 nM); Activity (U2OS [5]): all the cells died at tested concentration (500 nM); Activity (U2OS [6]): all the cells died at tested concentration (500 nM)
4 | COc1ccc(-c2c(C(F)(F)F)oc3cc(OC)cc(OC)c3c2=O)cc1 |  |  |  | Activity (U2OS [1]): 48.02%; Activity (U2OS [2]): 46.69%; Activity (U2OS [3]): 5.29%
5 | COc1cc(OC)c2c(=O)c(C(F)(F)F)c(-c3ccccc3)oc2c1 | 31.95 | 53.06 | 14.99 | 
